# Measurements taken from patent US11465987B2, “Compounds for treatment of cancer” (ONCTERNAL THERAPEUTICS, INC., priority 2012, dated 2022).
# Structures can show the parent of a compound that is named as a salt. Where two headings read alike, the source gives them in different places.
# Tests used:
# [1] = tested on: melanoma and prostate cancer cell lines; experiment: Antiproliferative activity summarised over the cell line panel (range or average); format: cell-based; conditions: for antiproliferative activity in words: Tables 1-3
# [2] = tested on: PC-3 human prostate cancer cell line; experiment: cells
# Source text: (§1) Cells were stained with SRB solution.
# [3] = tested on: LNCaP human prostate cancer cell line; experiment: Cytotoxicity (SRB) assay, LNCaP; format: cell-based
# Source text: as §1
# [4] = tested on: DU 145 human prostate cancer cell line; experiment: Cytotoxicity (SRB) assay, DU 145; format: cell-based
# Source text: as §1
# [5] = tested on: PPC-1 human prostate cancer cell line; experiment: Cytotoxicity (SRB) assay, PPC-1; format: cell-based
# Source text: as §1
# [6] = Tables 1-2, read-out: IC50 (range or bound over tested cell lines)
# [7] = Homo sapiens, read-out: IC50 PC-3, SRB assay, prostate cancer PC-3
# [8] = range over prostate cancer cell lines, read-out: IC50 range against prostate cancer cells
# [9] = Homo sapiens, LNCaP, SRB assay, prostate cancer LNCaP, read-out: IC50 LNCaP
# [10] = Homo sapiens, PPC-1, SRB assay, prostate cancer PPC-1, read-out: IC50 PPC-1
# [11] = Tables 11-13, read-out: IC50 (average of all seven cell lines)
# [12] = Homo sapiens, read-out: IC50 ± SEM, PC-3, Table 13
# [13] = Homo sapiens, LNCaP, Table 13A, read-out: inhibitory effects, LNCaP
# [14] = Homo sapiens, DU-145, Table 13A, read-out: inhibitory effects, DU145
# [15] = Homo sapiens, read-out: inhibitory effects, PC3, Table 13A
# [16] = Homo sapiens, PPC-1, Table 13A, read-out: inhibitory effects, PPC1
# [17] = Table 13A, read-out: inhibitory effects, LNCaP
# [18] = Table 13A, read-out: inhibitory effects, DU145
# [19] = read-out: inhibitory effects, PC3, Table 13A
# [20] = Table 13A, read-out: inhibitory effects, PPC1
# [21] = Homo sapiens, LNCaP, read-out: IC50 ± SEM, LNCaP
# [22] = Homo sapiens, DU-145, read-out: IC50 ± SEM, DU 145
# [23] = Homo sapiens, read-out: IC50 ± SEM, PC-3
# [24] = Homo sapiens, PPC-1, read-out: IC50 ± SEM, PPC-1
smiles,measurement,setting,value
"COc1cc(C(=O)c2cccc(-c3ccccc3)c2)cc(OC)c1OC [1a, Biphenyl-3-yl(3,4,5-trimethoxyphenyl)methanone]",antiproliferative activity in words,[1],hundreds of nanomolar range
"COc1cc(C(=O)c2cc(-c3ccccc3)ncn2)cc(OC)c1OC [1b, (6-Phenylpyrimidin-4-yl)(3,4,5-trimethoxyphenyl)methanone]",IC50,[1]; [6],3700 to 8300 nM
same,IC50,[2]; [7],8300 nM
"COc1cc(C(=O)c2ccc(-c3ccccc3)o2)cc(OC)c1OC [1d, (5-Phenylfuran-2-yl)(3,4,5-trimethoxyphenyl)methanone]",IC50,[1]; [8],12 to 35 nM
same,IC50,[2]; [7],21 nM
"COc1cc(C(=O)c2cnc(-c3ccccc3)s2)cc(OC)c1OC [1e, (2-Phenylthiazol-5-yl)(3,4,5-trimethoxyphenyl)methanone]",IC50,[1]; [6],> 10000 nM
"COc1cc(C(=O)c2csc(-c3ccccc3)c2)cc(OC)c1OC [1f, (5-Phenylthiophen-3-yl)(3,4,5-trimethoxyphenyl)methanone]",IC50,[1]; [8],12 to 35 nM
same,IC50,[2]; [7],12 nM
"COc1cc(C(=O)N2CCC(c3ccccc3)CC2)cc(OC)c1OC [1g, (4-Phenylpiperidin-1-yl)(3,4,5-trimethoxyphenyl)methanone]",IC50,[1]; [6],> 20000 nM
"COc1cc(C(=O)c2cc(-c3ccccc3)on2)cc(OC)c1OC [1i, (5-Phenylisoxazol-3-yl)(3,4,5-trimethoxyphenyl)methanone]",IC50,[1]; [6],> 10000 nM
"COc1cc(C(O)c2csc(-c3ccccc3)n2)cc(OC)c1OC (centres unmarked) [2b, (2-Phenylthiazol-4-yl)(3,4,5-trimethoxyphenyl)methanol]",antiproliferative activity in words,[1],inactive
same,IC50,[2]; [7],> 10000 nM
"COc1cc(/C(=N/O)c2csc(-c3ccccc3)n2)cc(OC)c1OC [2e-cis, (Z)-(2-Phenylthiazol-4-yl)(3,4,5-trimethoxyphenyl)methanone oxime]",fold more activity than anti-isomer,[1]; 2e-cis vs 2e-trans,10 fold
same,IC50,[1]; [6],100 to 300 nM
same,IC50,[2]; [7],120 nM
"COc1cc(/C(=N\O)c2csc(-c3ccccc3)n2)cc(OC)c1OC [2e-trans, (E)-(2-Phenylthiazol-4-yl)(3,4,5-trimethoxyphenyl)methanone oxime]",IC50,[1]; [6],> 10000 nM
same,IC50,[2]; [7],> 10000 nM
"COc1cc(NC(=O)c2csc(-c3ccccc3)n2)cc(OC)c1OC [2g, 2-Phenyl-N-(3,4,5-trimethoxyphenyl)thiazole-4-carboxamide]",IC50,[3]; [9],> 10000 nM
same,IC50,[2]; [7],> 10000 nM
"CNCc1ccc(-c2nc(C(=O)c3cc(OC)c(OC)c(OC)c3)cs2)cc1.Cl [2s, (2-(4-((Methylamino)methyl)phenyl)thiazol-4-yl)(3,4,5-trimethoxyphenyl)methanone hydrochloride]",IC50,"[4]; Homo sapiens, SRB assay, prostate cancer DU 145, read-out: IC50 DU 145",> 10000 nM
same,antiproliferative activity in words,[1],abrogated activity
same,IC50,"[2]; Homo sapiens, read-out: IC50 PC-3",> 10000 nM
"COc1cc(C(=O)c2csc(-c3ccc(CN(C)C)cc3)n2)cc(OC)c1OC.Cl [2u, (2-(4-((Dimethylamino)methyl)phenyl)thiazol-4-yl)(3,4,5-trimethoxyphenyl)methanone hydrochloride]",antiproliferative activity in words,[1],abrogated activity
same,IC50,[2]; [7],> 10000 nM
"COc1cc(C(=O)c2csc(Nc3ccc(C)cc3)n2)cc(OC)c1OC [5Hb, (2-(p-tolylamino)thiazol-4-yl)(3,4,5-trimethoxyphenyl)methanone hydrochloride salt]",IC50,[3]; [9],35 ± 1 nM
same,IC50,"[4]; Homo sapiens, DU-145, SRB assay, prostate cancer DU 145, read-out: IC50 DU 145",35 ± 1 nM
same,IC50,[2]; [7],38 ± 2 nM
same,IC50,[5]; [10],36 ± 1 nM
"COc1cc(C(=O)c2cn(S(=O)(=O)c3ccccc3)c(-c3cc(OC)c(OC)c(OC)c3)n2)cc(OC)c1OC [11ea, (1-(phenylsulfonyl)-2-(3,4,5-trimethoxyphenyl)-1H-imidazol-4-yl)(3,4,5-trimethoxyphenyl)methanone]",IC50,[1]; [11],1000 to 50000 nM
same,IC50,[2]; [12],> 10000 nM
"COc1cc(-c2nc(C(=O)c3ccc(F)cc3)cn2S(=O)(=O)c2ccccc2)cc(OC)c1OC [11eb, (4-fluorophenyl)(1-(phenylsulfonyl)-2-(3,4,5-trimethoxyphenyl)-1H-imidazol-4-yl)methanone]",IC50,[1]; [11],1000 to 50000 nM
same,IC50,[2]; [12],> 10000 nM
"COc1ccc(-c2nc(C(=O)c3ccc(F)cc3)cn2S(=O)(=O)c2ccccc2)cc1OC [11hb, (2-(3,4-dimethoxyphenyl)-1-(phenylsulfonyl)-1H-imidazol-4-yl)(4-fluorophenyl)methanone]",IC50,[1]; [11],1000 to 50000 nM
same,IC50,[2]; [12],10000 nM
"COc1cc(C(=O)c2cn(S(=O)(=O)c3ccccc3)c(-c3ccccc3C(F)(F)F)n2)cc(OC)c1OC [11ia, (1-(phenylsulfonyl)-2-(2-(trifluoromethyl)phenyl)-1H-imidazol-4-yl)(3,4,5-trimethoxyphenyl)methanone]",IC50,[1]; [11],1000 to 50000 nM
same,IC50,[2]; [12],> 10000 nM
"O=C(c1ccc(F)cc1)c1cn(S(=O)(=O)c2ccccc2)c(-c2ccccc2C(F)(F)F)n1 [11ib, (1-(phenylsulfonyl)-2-(2-(trifluoromethyl)phenyl)-1H-imidazol-4-yl)(4-fluorophenyl)methanone]",IC50,[1]; [11],1000 to 50000 nM
same,IC50,[2]; [12],> 10000 nM
COc1cc(-c2nc(C(=O)c3ccc(F)cc3)c[nH]2)cc(OC)c1OC [12eb],IC50,[1]; [11],1000 to 50000 nM
"COc1cc(C(=O)[C@H]2COC(c3ccccc3)=N2)cc(OC)c1OC [35a, (2R)-(2-Phenyl-4,5-dihydro-oxazol-4-yl)-(3,4,5-trimethoxy-phenyl)-methanone]",antiproliferative activity in words,[1],hundreds of nanomolar range
"COc1cc(C(=O)c2coc(-c3ccccc3)n2)cc(OC)c1OC [36a, (2-Phenyl-oxazol-4-yl)-(3,4,5-trimethoxy-phenyl)-methanone]",antiproliferative activity in words,[1],hundreds of nanomolar range
COc1cc(C(=O)c2csc(-c3ccc4[nH]ccc4c3)n2)cc(OC)c1OC [66a],IC50,[1]; read-out: IC50 (range over tested cell lines),7 to 25 nM
same,IC50,[2]; [7],7 nM
CCCn1cc(-c2ccccc2)nc1C(=O)c1cc(OC)c(OC)c(OC)c1 [70ab],IC50,"[3]; Homo sapiens, LNCaP, read-out: inhibitory effects, LNCaP",49.4 nM
same,IC50,"[4]; Homo sapiens, DU-145, read-out: inhibitory effects, DU145",71.6 nM
same,IC50,"[2]; Homo sapiens, read-out: inhibitory effects, PC3",25.6 nM
same,IC50,"[5]; Homo sapiens, PPC-1, read-out: inhibitory effects, PPC1",9.8 nM
COc1cc(C(=O)c2nc(-c3ccccc3)cn2C(C)C)cc(OC)c1OC [70ac],IC50,[3]; [13],62.2 nM
same,IC50,[4]; [14],114 nM
same,IC50,[2]; [15],52.5 nM
same,IC50,[5]; [16],15 nM
COc1cc(C(=O)c2nc(-c3ccccc3)cn2-c2ccccn2)cc(OC)c1OC [70ad],IC50,[3]; [13],19.5 nM
same,IC50,[4]; [14],36.3 nM
same,IC50,[5]; [16],7.8 nM
"COc1cc(C(=O)c2nc(-c3ccc(F)cc3)c[nH]2)cc(OC)c1OC [70b, (4-(4-Fluorophenyl)-1H-imidazol-2-yl)(3,4,5-trimethoxyphenyl)methanone and (5-(4-fluorophenyl)-H-imidazol-2-yl)(3,4,5-trimethoxyphenyl)methanone]",IC50,[3]; [17],114 nM
same,IC50,[4]; [18],353 nM
same,IC50,[2]; [19],196 nM
same,IC50,[5]; [20],13 nM
"COc1cc(C(=O)c2nc(-c3ccc(C)cc3)c[nH]2)cc(OC)c1OC [70f, (4-p-Tolyl-1H-imidazol-2-yl)(3,4,5-trimethoxyphenyl)methanone and (5-p-tolyl-H-imidazol-2-yl)(3,4,5-trimethoxyphenyl)methanone]",IC50,[3]; [17],13 nM
"COc1cc(C(=O)c2nc(-c3ccc(O)cc3)c[nH]2)cc(OC)c1OC [70i, (4-(4-Hydroxyphenyl)-1H-imidazol-2-yl)(3,4,5-trimethoxyphenyl)methanone and (5-(4-hydroxyphenyl)-1H-imidazol-2-yl)(3,4,5-trimethoxyphenyl)methanone)]",IC50,[3]; [17],219 nM
same,IC50,[4]; [18],518 nM
same,IC50,[2]; [19],155 nM
same,IC50,[5]; [20],122 nM
"COc1cc(C(=O)c2nc(-c3ccccc3)cn2Cc2ccccc2)cc(OC)c1OC [70o, (1-Benzyl-4-phenyl-1H-imidazol-2-yl)(3,4,5-trimethoxyphenyl)methanone]",IC50,[3]; [13],67 nM
same,IC50,[4]; [14],160 nM
same,IC50,[2]; [15],72 nM
same,IC50,[5]; [16],77 nM
"COc1cc(C(=O)c2nc(-c3ccccc3)cn2C2CCCC2)cc(OC)c1OC [70p, (1-cyclopentyl-4-phenyl-1H-imidazol-2-yl)(3,4,5-trimethoxyphenyl)methanone]",IC50,[3]; [13],51 nM
same,IC50,[4]; [14],167 nM
same,IC50,[2]; [15],56 nM
same,IC50,[5]; [16],63 nM
O=C(c1csc(-c2ccccc2)n1)c1c(F)c(F)c(F)c(F)c1F [compound 17],IC50,"[3]; Homo sapiens, LNCaP, Table 6A, read-out: IC50 ± SEM, LNCaP (converted)",2100 nM
same,IC50,"[4]; Homo sapiens, DU-145, Table 6A, read-out: IC50 ± SEM, DU 145",2600 nM
same,IC50,"[2]; Homo sapiens, read-out: IC50 ± SEM, PC-3, Table 6A",1900 nM
same,IC50,"[5]; Homo sapiens, PPC-1, Table 6A, read-out: IC50 ± SEM, PPC-1 (converted)",1300 nM
COc1cc(C(=O)c2csc(-c3cccs3)n2)cc(OC)c1OC [compound 25],IC50,[3]; [21],48 nM
same,IC50,[4]; [22],24 nM
same,IC50,[2]; [23],44 nM
same,IC50,[5]; [24],13 nM
COc1cc(C(=O)c2csc(-c3ccc(N)cc3)n2)cc(OC)c1OC [compound 26],IC50,[3]; [21],23 nM
same,IC50,[4]; [22],16 nM
same,IC50,[2]; [23],16 nM
same,IC50,[5]; [24],15 nM
"COc1cc(C(=O)C2N(C)C=C(c3ccccc3)N2C)cc(OC)c1OC (centres unmarked) [compound 105, (1,3-Dimethyl-4-phenyl-2,3-dihydro-1H-imidazol-2-yl)(3,4,5-trimethoxyphenyl)methanone]",IC50,[3]; [9],4240 nM
same,IC50,[2]; [7],3490 nM
same,IC50,[5]; [10],5290 nM
